From US7659277B2, “Ubiquitin ligase inhibitors and methods related thereto” (Proteologies, Ltd., priority 2003, dated 2010)

Key:
HIV-1 = experiment: HIV maturation (budding) in virus-like particle assay, HIV-1 p24 antigen ELISA; format: cell-based; conditions: Human immunodeficiency virus 1, read-out: Budding (3 μM)
From the text: Compounds were further assessed for effects on maturation of HIV particles in a virus-like particle assay.

POSH = target: T1, POSH (Homo sapiens, UniProt Q7Z6J0); experiment: Selectivity (% A in 1 μM), ubiquitin ligase activity of POSH; format: biochemical; conditions: read-out: Selectivity (% A* in 1 μM) POSH
T1 construct: GST-POSH lot NB81/p.118 3.6 mg/ml; fused on or other part: GST tag, used for detection with anti-GST XL665
T1 sequence (Q7Z6J0 1-269 limits assumed): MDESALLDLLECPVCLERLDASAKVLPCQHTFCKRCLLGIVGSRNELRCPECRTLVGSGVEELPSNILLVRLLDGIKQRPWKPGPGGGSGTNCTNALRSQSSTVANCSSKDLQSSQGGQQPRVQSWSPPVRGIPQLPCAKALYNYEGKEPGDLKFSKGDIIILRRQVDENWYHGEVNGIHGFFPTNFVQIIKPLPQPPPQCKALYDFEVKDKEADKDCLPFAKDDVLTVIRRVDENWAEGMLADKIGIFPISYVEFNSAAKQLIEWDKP
Description: Experimental Protocols: 1. HTS Screening Assay Procedure • Microplates 10109D to 10114D compounds at 1 mM. • (Controls in column 1). • All compounds were perchase from ChemBridge corporation: ChemBridge corporation 16981 Via Tazon, Suite G San Diego, Calif. 92127 a. Microplates Labeling • Put labels to 6 PS U-bottom clear microplate. • Put labels to 18 black microplates (triplicats). b. Microplates Preparation • Put 100 μl GST-POSH at 33 nM in wells of the clear PS U-bottom microplates (exept wells A1-D1). • Negative control: place 100 μl dH2O in wells A1-D1. • (Positive control: place 100 μl GST-POSH at 33 nM in wells E1-H1). • Put 8 μl enzymes solution ×4 to black microplates (column 1 to 11). c. Incubation of E3 with Compounds • Transfer 5 μl of compounds (at 1 mM) to the microplates containing 100 μl GST-POSH. • Add 5 μl of DMSO to controls column 1. • Incubation 30 minutes at RT. d. […] 2. […] Microplates Labeling • Put labels to 4 clear PP clear microplate (18.2 μM, 9.1 uM, 1.82 uM, 910 nM,). • Put labels to 5 clear PS U-bottom clear microplate 4.44 μM, 909, 444, 91 and 44 nM) • Put labels to 15 black microplates (triplicates). f. Original Microplate Dilutions • Put DMSO 40 μl to (18.2 μM, 1.82 uM plates) and 20 ul to (9.1 uM, 910 nM plates. • Mix by pipetation the original microplate (3× up and down 45 μl). • Transfer 10 μl of compounds from the original microplate (at 91 μM) to the next microplate (=18.2 μM) on splitting apparatus. • Mix by pipetation the 18.2 uM microplate (3× up and down 45 μl). • Transfer 20 μl of compounds from the 18.2 uM microplate to the next microplate (=9.1 μM) on splitting apparatus. • Mix by pipetation the 9.1 uM microplate (3× up and down 45 μl). • Transfer 10 μl of compounds from the 9.1 uM microplate to the next microplate (=1.82 μM) on splitting apparatus. • Mix by pipetation the 1.82 uM microplate (3× up and down 45 μl). • Transfer 20 μl of compounds from the 1.82 uM microplate to the next microplate (=910 nM) on splitting apparatus • Mix by pipetation. g. Microplates Preparation • Put 123 μl GST-POSH at 33 nM in wells of the 5 clear PS U-bottom clear microplates. • Positive control: place 123 μl GST-POSH at 33 nM in well A12-h12 13 μl DMSO. • Negative control: place 123 μl dH2O in well B1 and 13 μl DMSO. • Put 8 μl enzymes solution ×4 to 15 black microplates. • Controls: put 8 μl enzymes solution ×4 to wells A1 to F1. h. Incubation of POSH with Compounds • Take 7 μl of compounds at original plate (91 μM) and put into the 4.44 μM labeled microplate containing 123 μl GST-POSH, on splitting apparatus. • Mix by pipetation (3× up and down 115 μl), note time. • Take 7 μl of compounds at 18.2 μM and put into the 910 nM labeled microplate containing 123 μl GST-POSH, on splitting apparatus. • Mix by pipetation (3× up and down 115 μl), note time. • Take 7 μl of compounds at 9.1 μM and put into the 444 nM labeled microplate containing 123 μl GST-POSH, on splitting apparatus. • Mix by pipetation (3× up and down 115 μl), note time. • Take 7 μl of compounds at […] and put into the 91 nM labeled microplate containing 123 μl GST-POSH, on splitting apparatus. • Mix by pipetation (3× up and down 115 μl), note time. • Take 7 μl of compounds at 91.0 nM and put into the 44 nM labeled microplate containing 123 μl GST-POSH, on splitting apparatus. • Mix by pipetation (3× up and down 115 μl), note time. • Incubation 30 minutes at RT. i.

SMILES	activity at 3 µM (HIV-1) [%]	remaining activity at 1 µM (POSH) [%]
CN(C)c1ccc(/C=C2\SC(=S)N(C3CCS(=O)(=O)C3)C2=O)cc1 (centres unmarked) [Compound 110]	36	94
CN1C(=O)/C(=C\c2ccc(-c3cccc([N+](=O)[O-])c3)o2)SC1=S [Compound 115]	48	8
Cc1ccc(/N=C/c2cccc(O)c2O)cc1C [Compound 56]	59	27
O=C1S/C(=C/c2ccc(-c3ccc([N+](=O)[O-])cc3Cl)o2)C(=O)N1c1ccccc1 [Compound 27]	48	6
COc1ccc(NC(=O)c2cc3cccc(N)c3cc2O)cc1 [Compound 114]	46	31
COc1ccc(/C=N/c2ccc(Nc3ccccc3)cc2)c2ccccc12 [Compound 55]	55	40
O=C1C(=Cc2ccc(-c3ccc(Br)cc3)o2)C(=O)c2ccccc21 [Compound 38]	38	17
O=C1C=CC(=O)N1c1ccc(Cl)cc1 [Compound 19]	52	39
CC(C)(C)c1ccc(O)c(/N=C/C=C/c2cccc([N+](=O)[O-])c2)c1 [Compound 59]	61	26
N=C1NC(=O)/C(=C\c2ccc(-c3ccc(I)cc3)o2)S1 [Compound 29]	63	42
C=CCN1C(=O)/C(=C/c2c3ccccc3cc3ccccc23)SC1=S [Compound 109]	60	67
O=[N+]([O-])c1ccc(CN2CCN(c3cccc(Cl)c3)CC2)o1 [Compound 80]	55	50
O=C(O)c1ccc(-c2ccc(/C=c3\sc4nc5ccccc5n4c3=O)o2)cc1 [Compound 28]	54	26
Cc1c(C(=O)/C=C/c2ccccc2)c2cc(O)ccc2n1C [Compound 75]	39	103
CCCCOc1ccc(NC(=S)N2CCn3c4c(c(=O)c5cc(C)ccc53)CCC42)cc1 (centres unmarked) [Compound 81]	63	3
O=C1C=CC(=O)N1c1ccc(OC(F)(F)C(F)F)c(N2C(=O)C=CC2=O)c1 [Compound 20]	60	33
